Experimental data as given in patent US5942534A, “Photodynamic therapy for the treatment of osteoarthritis” (The General Hospital Corporation, priority 1997, dated 1999).
Converted amounts (≈) assume the structure as drawn. Read-outs that look alike come from different tables or passages of the source.

Legend:
Assay type in all cases: cell-based, calf
chondrocytes [1] = assay: PDT-induced cytotoxicity (MTT cellular viability) in chondrocytes; conditions: for toxic response / cellular viability (in words): 1, 5 or 10 J/cm^2 light; for decrease in cellular viability: BPD-MA concentrations exceeding 0.1 μg/ml, 690 nm
Method: (§1) Chondrocytes were harvested by established collagenase digestion techniques. Articular cartilage was aseptically dissected from the femoral condyles and patellas of calf knee joints. […] The resulting cell suspensions were filtered through a cell sieve and washed twice with serum free TCM. The cells were resuspended in the same medium containing 5% heat inactivated fetal calf serum (BioWhittaker, Walkerville, Md.) (FCS-TCM) for seeding. Cell number was determined using a hemocytometer. […] Cells were plated at a density of 1.5×10^6 cells/ml into Falcon 96 well cell culture plates (Becton Dickinson Labware, Franklin Lakes, N.J.) for the cytotoxicity and cell proliferation experiments and into Falcon 6 well cell culture plates for the Photosensitizer uptake studies. Chondrocyte cultures were maintained at 37° C. in a 5% CO2 incubator for 1 week prior to initiation of the photosensitization studies.
(§2) Photofrin® (PF) and Benzoporphyrin Derivative (BPD-MA) were obtained from Quadralogic Technologies (Vancouver, Canada). Chlorin e6 (Ce6) and chloroaluminum phthalocyanine (CASP) were obtained from Ciba Geigy (Basel, Switzerland) and Porphyrin Products (Logan, Utah), respectively. All photosensitizers were added to the chondrocytes in the dark 3 hours prior to light exposure. Photosensitizer stock solutions were prepared immediately prior to each experiment; serial dilutions were prepared using FCS-TCM. All irradiations were done at the appropriate excitation wavelengths for each photosensitizer (BPD-MA 690 nm; Ce6 658 nm; CASP 680 nm; PF 624 nm) using light provided by an argon ion pumped dye laser (Coherent, Palo Alto, Calif.). Following light exposure, control and irradiated cells were maintained for 72 hours prior to the assessment of cellular viability and proliferation rates. Cells were examined daily by light microscopy for morphologic changes.
Screening studies of toxicity determined the range of doses and light response for each photosensitizer. These predetermined ranges were used for all of the studies described. […] Dosages greater than 50 μg/ml were considered not clinically relevant and a dose range extending to 50 μg/ml was chosen for these studies.
PDT-induced cytotoxicity was determined 72 hours after irradiation. […] MTT is metabolized via mitochondrial dehydrogenase enzymes to a formazan dye which can be measured spectrophotometrically. Cytotoxicity is expressed as the percentage of formazan produced in cells treated with visible light of different wavelengths and intensities relative to control cells (% control). The data are expressed as the mean ±S.E.M. from triplicate experiments.

chondrocytes [2] = assay: Cell proliferation ([^3 H]-thymidine incorporation) after PDT; conditions: for effect on cellular proliferation rates (in words): [^3 H]-thymidine incorporation (FIG. 2); for IC50: Bos taurus, Chondrocyte
Method: as §1, §2
Cell proliferation was determined by [^3 H]-thymidine incorporation for all chondrocyte cultures 72 hours after drug and/or light exposure. The cell cultures were labeled with 5 μCi/ml [^3 H]-thymidine (35 Ci/mmol) (ICN, Irvine, Calif.) in FCS-TCM. After incubation for 20 hours, the radioactive medium was removed and the cells were rinsed three times with phosphate buffered saline (PBS) to remove unincorporated label. The cells were then lysed with buffer containing 150 mM Tris pH 8.0, 200 mM sodium chloride, 10% triton X-100 and 1% SDS. [^3 H]-thymidine incorporation was determined by liquid scintillation methods and the data are expressed as mean % control ±S.E.M. of samples irradiated without photosensitizer addition.
(§3) Articular chondrocytes were maintained in primary culture for five days after plating. Photosensitizer stocks were serially diluted in FCS-TCM and added to triplicate wells. The cells were incubated in the dark for 3 hours. The photosensitizer-containing FCS-TCM was then removed and the cells were rinsed with 1 ml PBS. To digest the extracellular matrix, the cells were then immersed in 1 ml of a solution of 1 mg/ml collagenase and 0.1 mg/ml hyaluronidase in serum-free TCM. The resulting single cell suspensions were transferred to microfuge tubes and were centrifuged at 3.3×g for 5 minutes. The collagenase solution was removed and the cells were rinsed three times with calcium/magnesium-free PBS. Aliquots were taken for cell counting prior to cell lysis with 1 ml 0.1 N NaOH containing 1% SDS. Cell counting was performed by hemocytometer and Coulter counter. Fluorescent spectra of the cell lysates were obtained using a Spex FluoroMax spectrofluorometer (ISA Instruments, Edison, N.J.) at the appropriate excitation/emission wavelengths for each of the four photosensitizers studied. Fluorescence spectra were corrected for background fluorescence. Relative uptake values were obtained by regression analysis of standard curves of known photosensitizer concentrations. […] Values of uptake at the IC50 are shown in fg/cell.

MMP2 = assay: Gelatin zymography, MMP2 after PDT; conditions: for reduction of MMP2 production: at the IC50 dose
Method: as §1, §2
Aliquots of conditioned medium were mixed with 1 ml of acetone and maintained at -20° C. for 16-20 hours. The aliquots were microcentrifuged at 14,000×g for 15 minutes, the supernatant was removed and the precipitated protein was dried in a vacuum concentrator (Savant, Farmingdale, N.Y.) to remove residual acetone. Conditioned medium samples were mixed with sample buffer (0.4 M Tris pH 6.8, 5% SDS, 20% glycerol, 0.003% bromophenol blue) and applied directly, without boiling or reduction, to 10% acrylamide gels containing 1% gelatin. […] The gels were stained for 1 hour at room temperature in 30% methanol/10% acetic acid containing 0.5% coomassie blue R-250 and destained in the same solution without dye. The gelatinolytic activity of the proteins was evidenced by clear bands against the blue background of the stained gelatin.

chondrocytes [3] = assay: Fluorescence of photosensitizers in chondrocytes (confocal microscopy)
articular chondrocytes = assay: Photosensitizer uptake studies; conditions: for IC50 Uptake: uptake at the IC50, 3 hours incubation in the dark; for relative uptake (in words): at the IC50 concentrations, 3 hour incubation
Method: as §1
as §3, with “fg/cell. Average protein per cell was calculated from the cell counts and protein concentration determined by the Lowry protein assay.” for “fg/cell.”

MMP9 = assay: Gelatin zymography, MMP9 after PDT; conditions: at PDT parameter levels non-toxic to chondrocytes
Method: Chondrocytes were harvested by established collagenase digestion techniques. Articular cartilage was aseptically dissected from the femoral condyles and patellas of calf knee joints. Condyle surface shavings were finely minced and digested overnight at 37° C. with collagenase 1 mg/ml (Type II; 355 U/mg dry weight (dw)) and hyaluronidase 0.1 mg/ml (1060 USP/NF units/mg dw) (Worthington Biochemicals, Inc., Freehold, N.J.) in Dulbecco's Modified Eagle's Medium (DMEM; Mediatech, Herndon, Va.) supplemented with 20 mM HEPES, 100 U/ml penicillin G, 100 μg/ml ascorbic acid (serum free TCM). The resulting cell suspensions were filtered through a cell sieve and washed twice with serum free TCM. The cells were resuspended in the same medium containing 5% heat inactivated fetal calf serum (BioWhittaker, Walkerville, Md.) (FCS-TCM) for seeding. Cell number was determined using a hemocytometer. Cell viability, which was determined by trypan blue exclusion, was greater than 99% for all preparations. Cells were plated at a density of 1.5×10^6 cells/ml into Falcon 96 well cell culture plates (Becton Dickinson Labware, Franklin Lakes, N.J.) for the cytotoxicity and cell proliferation experiments and into Falcon 6 well cell culture plates for the Photosensitizer uptake studies. […]

[4] = CASP parameters tested in zymography studies
[5] = concentration inhibiting [^3 H]-thymidine incorporation by 50%

[Cl][Al]1[n]2c3c4ccccc4c2N=C2N=C(N=c4c5ccccc5c([n]41)=NC1=NC(=N3)c3ccccc31)c1ccccc12 [CASP, chloroaluminum phthalocyanine]
toxic response / cellular viability (in words) (chondrocytes [1]): minimally toxic to articular chondrocytes
decrease in cellular viability by MTT production (in words) (chondrocytes [1]; [4]): no decrease in cellular viability was observed
saturation of toxicity effects (in words) (chondrocytes [1]; in the range studied (FIG. 1D)): No saturation effects were observed
dose response in screening studies of toxicity (in words) (chondrocytes [1]; screening studies of toxicity to determine range of doses): no dose response was seen
reduction of [^3 H]-thymidine incorporation (chondrocytes [2]; 50 μg/ml, highest concentration of CASP investigated): 25%
decrease by [^3 H]-thymidine incorporation (in words) (chondrocytes [2]; [4]): no decrease in cellular viability was observed
effect on cellular proliferation rates (in words) (chondrocytes [2]): least toxic
IC50 (Table 2) (chondrocytes [2]; [5]): > 50 µg/mL
reduction in MMP2 levels (in words) (MMP2; 3.12 μg/ml, light dose of 10 J/cm^2, no decrease in cell viability): complete reduction in MMP2 levels
reductions in MMP2 levels (in words) (MMP2; CASP parameters tested): significant reductions in MMP2 levels
decrease of MMP2 levels (MMP2; drug concentrations greater than 0.2 μg/ml, light dose of 10 J/cm^2): 25%
cellular fluorescence intensity (in words) (chondrocytes [3]): Minimal CASP fluorescence was observed at the drug concentrations studied
Photons Absorbed at IC50 (articular chondrocytes): 1.86 × 10^6 photons/cell
IC50 Uptake (articular chondrocytes): 64.77 fg/cell

C=Cc1c(C)c2cc3nc(c(CC(=O)O)c4[nH]c(cc5nc(cc1[nH]2)C(C)=C5CC)c(C)c4C(=O)O)[C@@H](CCC(=O)O)[C@@H]3C [Ce6, Chlorin e6]
decrease in viability (chondrocytes [1]; more than 6 μg/ml Ce6, 5 or 10 J/cm^2 light, 658 nm, 72 hours after irradiation): approximately 50%
MMP9 production (in words) (MMP9): reduced at PDT parameter levels non-toxic to chondrocytes
IC50 (chondrocytes [2]; 72 hours after drug and/or light exposure, light dose not given, read-out: IC50, inhibition of chondrocyte proliferation ([^3 H]-thymidine incorporation)): 4.4 µg/mL (≈ 7.37 µM)
IC50 (chondrocytes [2]; concentration inhibiting [^3 H]-thymidine incorporation by 50%, read-out: IC50 (Table 2)): 4.4 µg/mL (≈ 7.37 µM)
MMP2 production (in words) (MMP2; at PDT parameter levels non-toxic to chondrocytes): reduced at PDT parameter levels non-toxic to chondrocytes
MMP production (in words) (MMP2; at high drug doses): correspondingly greater decreases in MMP production
reduction of MMP2 production (MMP2): > 95%
total protein concentration (in words) (MMP2; zymography studies): did not vary with MMP values
cellular fluorescence intensity (in words) (chondrocytes [3]): elevated levels of cytoplasmic fluorescence comparable in intensity and distribution to BPD-MA
Photons Absorbed at IC50 (articular chondrocytes): 1.44 × 10^8 photons/cell
relative uptake (in words) (articular chondrocytes): markedly less than for CASP and PF
IC50 Uptake (articular chondrocytes): 2.32 fg/cell

Benzoporphyrin Derivative [BPD-MA]
toxic response / cellular viability (in words) (chondrocytes [1]): most toxic responses in chondrocyte cultures
decrease in cellular viability (chondrocytes [1]; 1 J/cm^2 light, 72 hours after irradiation): 60%
decrease in cellular viability (chondrocytes [1]; 5 or 10 J/cm^2 light, 72 hours after irradiation): 80%
IC50, inhibition of chondrocyte proliferation ([^3 H]-thymidine incorporation) (chondrocytes [2]; 72 hours after drug and/or light exposure, light dose not given): 0.0503 µg/mL
effect on cellular proliferation rates (in words) (chondrocytes [2]): most toxic effects
IC50 (Table 2) (chondrocytes [2]; [5]): 0.05 µg/mL
MMP2 production (in words) (MMP2; at a highly toxic dose): non-detectable
reduction of MMP2 production (MMP2): approximately 50%
MMP2 production (in words) (MMP2; dependence on cell killing): MMP2 production decreased as a function of cell killing
cellular fluorescence intensity (in words) (chondrocytes [3]): strongest fluorescence signals
fluorescence/uptake in differentiated vs dedifferentiated chondrocytes (in words) (chondrocytes [3]): Fluorescence occurred uniformly in both differentiated and dedifferentiated chondrocytes
subcellular fluorescence distribution (in words) (chondrocytes [3]): diffuse cytoplasmic fluorescence for all drug concentrations studied. No nuclear or membrane staining was observed
Photons Absorbed at IC50 (articular chondrocytes): 5.86 × 10^6 photons/cell
relative uptake (in words) (articular chondrocytes): lowest relative uptake
IC50 Uptake (articular chondrocytes): 1.02 fg/cell
